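Cells were grown in 96-well plates and exposed to each compound for 48 hours at five concentrations; endpoints were interpolated linearly between bracketing concentrations, or set to the highest concentration if not reached. GI50 is the concentration that inhibits growth by half. At the TGI there is no net growth.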
Key:
Experiment in all cases: growth of human tumour cells (NCI), 48 h
A498 renal = system: A498 renal
SK-MEL-5 melanoma = system: SK-MEL-5 melanoma
T-47D breast = system: T-47D breast
MALME-3M melanoma = system: MALME-3M melanoma
MCF7 breast = system: MCF7 breast
SNB-19 CNS = system: SNB-19 CNS
M14 melanoma = system: M14 melanoma
OVCAR-5 ovarian = system: OVCAR-5 ovarian
EKVX NSCLC = system: EKVX NSCLC
UACC-62 melanoma = system: UACC-62 melanoma
HL-60(TB) leukemia = system: HL-60(TB) leukemia
ACHN renal = system: ACHN renal
TK-10 renal = system: TK-10 renal
SN12C renal = system: SN12C renal
HT29 colon = system: HT29 colon
U251 CNS = system: U251 CNS
HCT-15 colon = system: HCT-15 colon
HCT-116 colon = system: HCT-116 colon
SF-295 CNS = system: SF-295 CNS
NCI/ADR-RES ovarian = system: NCI/ADR-RES ovarian
CAKI-1 renal = system: CAKI-1 renal
OVCAR-4 ovarian = system: OVCAR-4 ovarian
SF-268 CNS = system: SF-268 CNS
MOLT-4 leukemia = system: MOLT-4 leukemia
KM12 colon = system: KM12 colon
NCI-H460 lung = system: NCI-H460 lung
MDA-MB-435 = system: MDA-MB-435
MDA-MB-231 breast = system: MDA-MB-231 breast
NCI-H522 lung = system: NCI-H522 lung
NCI-H226 lung = system: NCI-H226 lung
COLO 205 colon = system: COLO 205 colon
IGROV1 ovarian = system: IGROV1 ovarian
UACC-257 melanoma = system: UACC-257 melanoma
786-0 renal = system: 786-0 renal
SR leukemia = system: SR leukemia
DU-145 prostate = system: DU-145 prostate
BT-549 breast = system: BT-549 breast
RPMI-8226 leukemia = system: RPMI-8226 leukemia
HCC-2998 colon = system: HCC-2998 colon
SK-OV-3 ovarian = system: SK-OV-3 ovarian
A549 NSCLC = system: A549 NSCLC
CCRF-CEM leukemia = system: CCRF-CEM leukemia
K-562 leukemia = system: K-562 leukemia
SF-539 CNS = system: SF-539 CNS
SK-MEL-28 melanoma = system: SK-MEL-28 melanoma
HS 578T breast = system: HS 578T breast
SW-620 colon = system: SW-620 colon
HOP-92 NSCLC = system: HOP-92 NSCLC
RXF 393 renal = system: RXF 393 renal
SNB-75 CNS = system: SNB-75 CNS
PC-3 prostate = system: PC-3 prostate
UO-31 renal = system: UO-31 renal
OVCAR-8 ovarian = system: OVCAR-8 ovarian
NCI-H23 lung = system: NCI-H23 lung
HOP-62 NSCLC = system: HOP-62 NSCLC
LOX IMVI melanoma = system: LOX IMVI melanoma

Work on `COc1ccc(/C=N\NC(=O)c2ccc3nc(-c4ccc(Br)cc4)[nH]c3c2)cc1` yielded a GI50 (A498 renal) of 2.26 µM, a TGI (A498 renal) of 5.25 µM and a GI50 (SK-MEL-5 melanoma) of 2.03 µM. The TGI (SK-MEL-5 melanoma) was 4.38 µM, the GI50 (T-47D breast) was 1.85 µM and the TGI (T-47D breast) was 4.31 µM. For the same compound, the GI50 (MALME-3M melanoma) was 1.76 µM, the TGI (MALME-3M melanoma) was 3.79 µM and the GI50 (MCF7 breast) was 1.92 µM. It also gave a TGI (MCF7 breast) of 5.81 µM, a GI50 (SNB-19 CNS) of 2.81 µM and a TGI (SNB-19 CNS) of 7.39 µM. It also gave a GI50 (M14 melanoma) of 2.63 µM, a TGI (M14 melanoma) of 7.47 µM and a GI50 (OVCAR-5 ovarian) of 2.68 µM. For the same compound, the TGI (OVCAR-5 ovarian) was 7.27 µM, the GI50 (EKVX NSCLC) was 2.22 µM and the TGI (EKVX NSCLC) was 5.27 µM. The GI50 (UACC-62 melanoma) was 2.51 µM, the TGI (UACC-62 melanoma) was 7.2 µM and the GI50 (HL-60(TB) leukemia) was 36.6 µM. The TGI (HL-60(TB) leukemia) was over 100 µM, the GI50 (ACHN renal) was 2.27 µM and the TGI (ACHN renal) was 6.22 µM. For the same compound, the GI50 (TK-10 renal) was 2.38 µM, the TGI (TK-10 renal) was 5.06 µM and the GI50 (SN12C renal) was 2.4 µM. For the same compound, the TGI (SN12C renal) was 5.94 µM, the GI50 (HT29 colon) was 1.7 µM and the TGI (HT29 colon) was 3.3 µM. For the same compound, the GI50 (U251 CNS) was 1.94 µM, the TGI (U251 CNS) was 3.55 µM and the GI50 (HCT-15 colon) was 3.7 µM. For the same compound, the TGI (HCT-15 colon) was 22.9 µM, the GI50 (HCT-116 colon) was 2.65 µM and the TGI (HCT-116 colon) was 6.07 µM. It also gave a GI50 (SF-295 CNS) of 1.99 µM, a TGI (SF-295 CNS) of 4.27 µM and a GI50 (NCI/ADR-RES ovarian) of 17.8 µM. It also gave a TGI (NCI/ADR-RES ovarian) of over 100 µM, a GI50 (CAKI-1 renal) of 2.31 µM and a TGI (CAKI-1 renal) of 6.67 µM. It also gave a GI50 (OVCAR-4 ovarian) of 2.14 µM, a TGI (OVCAR-4 ovarian) of 5.16 µM and a GI50 (SF-268 CNS) of 2.31 µM. The TGI (SF-268 CNS) was 5.93 µM, the GI50 (MOLT-4 leukemia) was 4.3 µM and the TGI (MOLT-4 leukemia) was over 100 µM. It also gave a GI50 (KM12 colon) of 3.19 µM, a TGI (KM12 colon) of 12.8 µM and a GI50 (NCI-H460 lung) of 1.74 µM. For the same compound, the TGI (NCI-H460 lung) was 3.37 µM, the GI50 (MDA-MB-435) was 2.91 µM and the TGI (MDA-MB-435) was 8.11 µM. For the same compound, the GI50 (MDA-MB-231 breast) was 2.43 µM, the TGI (MDA-MB-231 breast) was 5.93 µM and the GI50 (NCI-H522 lung) was 2.59 µM. It also gave a TGI (NCI-H522 lung) of 11.2 µM, a GI50 (NCI-H226 lung) of 2.65 µM and a TGI (NCI-H226 lung) of 16.8 µM. The GI50 (COLO 205 colon) was 1.94 µM, the TGI (COLO 205 colon) was 5.36 µM and the GI50 (IGROV1 ovarian) was 2.22 µM. For the same compound, the TGI (IGROV1 ovarian) was 7.24 µM, the GI50 (UACC-257 melanoma) was 2.14 µM and the TGI (UACC-257 melanoma) was 4.78 µM. It also gave a GI50 (786-0 renal) of 2.05 µM, a TGI (786-0 renal) of 4.2 µM and a GI50 (SR leukemia) of 2.1 µM. It also gave a TGI (SR leukemia) of 6.28 µM, a GI50 (DU-145 prostate) of 3.07 µM and a TGI (DU-145 prostate) of 9.39 µM. It also gave a GI50 (BT-549 breast) of 2.64 µM, a TGI (BT-549 breast) of 7.06 µM and a GI50 (RPMI-8226 leukemia) of 2.12 µM. For the same compound, the TGI (RPMI-8226 leukemia) was 8.38 µM, the GI50 (HCC-2998 colon) was 3.06 µM and the TGI (HCC-2998 colon) was 9.13 µM. For the same compound, the GI50 (SK-OV-3 ovarian) was 2.37 µM, the TGI (SK-OV-3 ovarian) was 15.5 µM and the GI50 (A549 NSCLC) was 2.42 µM. For the same compound, the TGI (A549 NSCLC) was 6.03 µM, the GI50 (CCRF-CEM leukemia) was 6.91 µM and the TGI (CCRF-CEM leukemia) was over 100 µM. It also gave a GI50 (K-562 leukemia) of 2.89 µM, a TGI (K-562 leukemia) of 10.4 µM and a GI50 (SF-539 CNS) of 1.76 µM. It also gave a TGI (SF-539 CNS) of 3.47 µM, a GI50 (SK-MEL-28 melanoma) of 1.98 µM and a TGI (SK-MEL-28 melanoma) of 4.1 µM. The GI50 (HS 578T breast) was 2.34 µM, the TGI (HS 578T breast) was 5.47 µM and the GI50 (SW-620 colon) was 2.17 µM. The TGI (SW-620 colon) was 4.64 µM, the GI50 (HOP-92 NSCLC) was 1.9 µM and the TGI (HOP-92 NSCLC) was 4.65 µM. It also gave a GI50 (RXF 393 renal) of 1.62 µM, a TGI (RXF 393 renal) of 3.49 µM and a GI50 (SNB-75 CNS) of 1.93 µM. For the same compound, the TGI (SNB-75 CNS) was 4.69 µM, the GI50 (PC-3 prostate) was 1.79 µM and the TGI (PC-3 prostate) was 3.72 µM. For the same compound, the GI50 (UO-31 renal) was 1.7 µM, the TGI (UO-31 renal) was 5.44 µM and the GI50 (OVCAR-8 ovarian) was 2.2 µM. It also gave a TGI (OVCAR-8 ovarian) of 5.16 µM, a GI50 (NCI-H23 lung) of 2.43 µM and a TGI (NCI-H23 lung) of 6.05 µM. For the same compound, the GI50 (HOP-62 NSCLC) was 1.87 µM, the TGI (HOP-62 NSCLC) was 4.21 µM and the GI50 (LOX IMVI melanoma) was 1.93 µM. It also gave a TGI (LOX IMVI melanoma) of 4.17 µM.

— PubChem BioAssay (NCI)
